# From ChEMBL document CHEMBL1201861, “Genomics of Drug Sensitity in Cancer screening data, Wellcome Trust Sanger Institute”
# Tested on: NCI-H2405;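 note: growth inhibition of the human cell line, read out with a cell viability assay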
# Test: cells
# Type: functional, cell-based
# Settings: Homo sapiens
row,SMILES,IC50
1,CS(=O)(=O)N1CCN(Cc2cc3nc(-c4cccc5[nH]ncc45)nc(N4CCOCC4)c3s2)CC1 [PICTILISIB],> 4 µM

# Tested on: EFO-27;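 note: growth inhibition of EFO-27 cells, read out with a cell viability assay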
# Test: cells
# Type: functional, cell-based
# Settings: Homo sapiens
# Description: SANGER: Inhibition of human EFO-27 cell growth in a cell viability assay.
row,SMILES,IC50
1,CS(=O)(=O)N1CCN(Cc2cc3nc(-c4cccc5[nH]ncc45)nc(N4CCOCC4)c3s2)CC1 [PICTILISIB],> 4 µM

# Tested on: GAMG;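 note: cell growth inhibition measured by a viability assay in the GAMG human cell line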
# Test: cells
# Type: functional, cell-based
# Settings: Homo sapiens
# Description: SANGER: Inhibition of human GAMG cell growth in a cell viability assay.
row,SMILES,IC50
1,CS(=O)(=O)N1CCN(Cc2cc3nc(-c4cccc5[nH]ncc45)nc(N4CCOCC4)c3s2)CC1 [PICTILISIB],371 nM

# Tested on: HCC1954;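 note: growth inhibition of human HCC1954 cells, read out with a cell viability assay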
# Test: cells
# Type: functional, cell-based
# Settings: Homo sapiens
# Description: SANGER: Inhibition of human HCC1954 cell growth in a cell viability assay.
row,SMILES,IC50
1,CS(=O)(=O)N1CCN(Cc2cc3nc(-c4cccc5[nH]ncc45)nc(N4CCOCC4)c3s2)CC1 [PICTILISIB],> 4 µM

# Tested on: HGC-27;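 note: growth inhibition of human HGC-27 cells, read out in a cell viability assay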
# Test: cells
# Type: functional, cell-based
# Settings: Homo sapiens
# Description: SANGER: Inhibition of human HGC-27 cell growth in a cell viability assay.
row,SMILES,IC50
1,CS(=O)(=O)N1CCN(Cc2cc3nc(-c4cccc5[nH]ncc45)nc(N4CCOCC4)c3s2)CC1 [PICTILISIB],213 nM

# Tested on: NCI-H522;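 note: cell viability assay measuring growth inhibition of human NCI-H522 cells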
# Test: cells
# Type: functional, cell-based
# Settings: Homo sapiens
# Description: SANGER: Inhibition of human NCI-H522 cell growth in a cell viability assay.
row,SMILES,IC50
1,CS(=O)(=O)N1CCN(Cc2cc3nc(-c4cccc5[nH]ncc45)nc(N4CCOCC4)c3s2)CC1 [PICTILISIB],> 4 µM

# Tested on: HLE;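 note: growth inhibition of human HLE cells, read out by a cell viability assay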
# Test: cells
# Type: functional, cell-based
# Settings: Homo sapiens
# Description: SANGER: Inhibition of human HLE cell growth in a cell viability assay.
row,SMILES,IC50
1,CS(=O)(=O)N1CCN(Cc2cc3nc(-c4cccc5[nH]ncc45)nc(N4CCOCC4)c3s2)CC1 [PICTILISIB],> 4 µM

# Tested on: A-427;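 note: growth inhibition of human A-427 cells, read out by a cell viability assay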
# Test: cells
# Type: functional, cell-based
# Settings: Homo sapiens
# Description: SANGER: Inhibition of human A427 cell growth in a cell viability assay.
row,SMILES,IC50
1,CS(=O)(=O)N1CCN(Cc2cc3nc(-c4cccc5[nH]ncc45)nc(N4CCOCC4)c3s2)CC1 [PICTILISIB],> 4 µM

# Tested on: SW626;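 note: growth inhibition of SW626 cells, measured with a cell viability assay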
# Test: cells
# Type: functional, cell-based
# Settings: Homo sapiens
# Description: SANGER: Inhibition of human SW626 cell growth in a cell viability assay.
row,SMILES,IC50
1,CS(=O)(=O)N1CCN(Cc2cc3nc(-c4cccc5[nH]ncc45)nc(N4CCOCC4)c3s2)CC1 [PICTILISIB],> 4 µM

# Tested on: CAMA-1;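 note: growth inhibition of CAMA-1 cells, read out with a cell viability assay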
# Test: cells
# Type: functional, cell-based
# Settings: Homo sapiens
# Description: SANGER: Inhibition of human CAMA-1 cell growth in a cell viability assay.
row,SMILES,IC50
1,CS(=O)(=O)N1CCN(Cc2cc3nc(-c4cccc5[nH]ncc45)nc(N4CCOCC4)c3s2)CC1 [PICTILISIB],> 4 µM

# Tested on: HuP-T3;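 note: HuP-T3 cell growth inhibition, read out with a cell viability assay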
# Test: cells
# Type: functional, cell-based
# Settings: Homo sapiens
# Description: SANGER: Inhibition of human HuP-T3 cell growth in a cell viability assay.
row,SMILES,IC50
1,CS(=O)(=O)N1CCN(Cc2cc3nc(-c4cccc5[nH]ncc45)nc(N4CCOCC4)c3s2)CC1 [PICTILISIB],> 4 µM

# Tested on: FaDu;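 note: cell viability readout of growth inhibition in FaDu cells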
# Test: cells
# Type: functional, cell-based
# Settings: Homo sapiens
# Description: SANGER: Inhibition of human FADU cell growth in a cell viability assay.
row,SMILES,IC50
1,CS(=O)(=O)N1CCN(Cc2cc3nc(-c4cccc5[nH]ncc45)nc(N4CCOCC4)c3s2)CC1 [PICTILISIB],> 4 µM

# Tested on: T-24;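 note: growth inhibition of T-24 cells, read out with a cell viability assay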
# Test: cells
# Type: functional, cell-based
# Settings: Homo sapiens
# Description: SANGER: Inhibition of human T-24 cell growth in a cell viability assay.
row,SMILES,IC50
1,CS(=O)(=O)N1CCN(Cc2cc3nc(-c4cccc5[nH]ncc45)nc(N4CCOCC4)c3s2)CC1 [PICTILISIB],> 4 µM

# Tested on: UO-31;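 note: cell viability assay measuring inhibition of cell growth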
# Test: cells
# Type: functional, cell-based
# Settings: Homo sapiens
# Description: SANGER: Inhibition of human U031 cell growth in a cell viability assay.
row,SMILES,IC50
1,CS(=O)(=O)N1CCN(Cc2cc3nc(-c4cccc5[nH]ncc45)nc(N4CCOCC4)c3s2)CC1 [PICTILISIB],> 4 µM

# Tested on: SW1990;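 note: cell growth inhibition determined with a viability assay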
# Test: cells
# Type: functional, cell-based
# Settings: Homo sapiens
# Description: SANGER: Inhibition of human SW1990 cell growth in a cell viability assay.
row,SMILES,IC50
1,CS(=O)(=O)N1CCN(Cc2cc3nc(-c4cccc5[nH]ncc45)nc(N4CCOCC4)c3s2)CC1 [PICTILISIB],> 4 µM

# Tested on: HCC1395;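 note: growth inhibition of HCC1395 cells, read out by a cell viability assay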
# Test: cells
# Type: functional, cell-based
# Settings: Homo sapiens
# Description: SANGER: Inhibition of human HCC1395 cell growth in a cell viability assay.
row,SMILES,IC50
1,CS(=O)(=O)N1CCN(Cc2cc3nc(-c4cccc5[nH]ncc45)nc(N4CCOCC4)c3s2)CC1 [PICTILISIB],> 4 µM

# Tested on: NCI-H810;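 note: IC50 reflects inhibition of cancer cell line growth, read out with a cell viability assay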
# Test: cells
# Type: functional, cell-based
# Settings: Homo sapiens
# Description: SANGER: Inhibition of human NCI-H810 cell growth in a cell viability assay.
row,SMILES,IC50
1,CS(=O)(=O)N1CCN(Cc2cc3nc(-c4cccc5[nH]ncc45)nc(N4CCOCC4)c3s2)CC1 [PICTILISIB],> 4 µM

# Tested on: NY
# Test: cells
# Type: functional, cell-based
# Settings: Homo sapiens
# Description: SANGER: Inhibition of human NY cell growth in a cell viability assay.
row,SMILES,IC50
1,CS(=O)(=O)N1CCN(Cc2cc3nc(-c4cccc5[nH]ncc45)nc(N4CCOCC4)c3s2)CC1 [PICTILISIB],> 4 µM

# Tested on: MKN-1;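 note: growth inhibition of human MKN1 cells, read out by a cell viability measurement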
# Test: cells
# Type: functional, cell-based
# Settings: Homo sapiens
# Description: SANGER: Inhibition of human MKN1 cell growth in a cell viability assay.
row,SMILES,IC50
1,CS(=O)(=O)N1CCN(Cc2cc3nc(-c4cccc5[nH]ncc45)nc(N4CCOCC4)c3s2)CC1 [PICTILISIB],> 4 µM

# Tested on: HN
# Test: cells
# Type: functional, cell-based
# Settings: Homo sapiens
# Description: SANGER: Inhibition of human HN cell growth in a cell viability assay.
row,SMILES,IC50
1,CS(=O)(=O)N1CCN(Cc2cc3nc(-c4cccc5[nH]ncc45)nc(N4CCOCC4)c3s2)CC1 [PICTILISIB],3.07 µM

# Tested on: C3A;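 note: growth inhibition of C3A human cells, quantified with a cell viability readout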
# Test: cells
# Type: functional, cell-based
# Settings: Homo sapiens
# Description: SANGER: Inhibition of human C3A cell growth in a cell viability assay.
row,SMILES,IC50
1,CS(=O)(=O)N1CCN(Cc2cc3nc(-c4cccc5[nH]ncc45)nc(N4CCOCC4)c3s2)CC1 [PICTILISIB],> 4 µM

# Tested on: HTC-C3;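 note: inhibition of cell growth, read out with a cell viability assay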
# Test: cells
# Type: functional, cell-based
# Settings: Homo sapiens
# Description: SANGER: Inhibition of human HTC-C3 cell growth in a cell viability assay.
row,SMILES,IC50
1,CS(=O)(=O)N1CCN(Cc2cc3nc(-c4cccc5[nH]ncc45)nc(N4CCOCC4)c3s2)CC1 [PICTILISIB],3.29 µM

# Tested on: MC-IXC;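 note: growth inhibition of MC-IXC cells, read out with a cell viability assay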
# Test: cells
# Type: functional, cell-based
# Settings: Homo sapiens
# Description: SANGER: Inhibition of human MC-IXC cell growth in a cell viability assay.
row,SMILES,IC50
1,CS(=O)(=O)N1CCN(Cc2cc3nc(-c4cccc5[nH]ncc45)nc(N4CCOCC4)c3s2)CC1 [PICTILISIB],> 4 µM

# Tested on: KYSE-270;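 note: cell growth inhibition measured with a viability assay in the human KYSE-270 line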
# Test: cells
# Type: functional, cell-based
# Settings: Homo sapiens
# Description: SANGER: Inhibition of human KYSE-270 cell growth in a cell viability assay.
row,SMILES,IC50
1,CS(=O)(=O)N1CCN(Cc2cc3nc(-c4cccc5[nH]ncc45)nc(N4CCOCC4)c3s2)CC1 [PICTILISIB],1300 nM

# Tested on: LCLC-103H cell line
# Test: cells
# Type: functional, cell-based
# Settings: Homo sapiens
# Description: SANGER: Inhibition of human LCLC-103H cell growth in a cell viability assay.
row,SMILES,IC50
1,CS(=O)(=O)N1CCN(Cc2cc3nc(-c4cccc5[nH]ncc45)nc(N4CCOCC4)c3s2)CC1 [PICTILISIB],> 4 µM

# Tested on: MEL-HO
# Test: cells
# Type: functional, cell-based
# Settings: Homo sapiens
# Description: SANGER: Inhibition of human MEL-HO cell growth in a cell viability assay.
row,SMILES,IC50
1,CS(=O)(=O)N1CCN(Cc2cc3nc(-c4cccc5[nH]ncc45)nc(N4CCOCC4)c3s2)CC1 [PICTILISIB],2680 nM

# Tested on: RD
# Test: cells
# Type: functional, cell-based
# Settings: Homo sapiens
# Description: SANGER: Inhibition of human RD cell growth in a cell viability assay.
row,SMILES,IC50
1,CS(=O)(=O)N1CCN(Cc2cc3nc(-c4cccc5[nH]ncc45)nc(N4CCOCC4)c3s2)CC1 [PICTILISIB],> 4 µM

# Tested on: NCI-H630;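 note: growth inhibition of NCI-H630 cells, read out with a cell viability assay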
# Test: cells
# Type: functional, cell-based
# Settings: Homo sapiens
# Description: SANGER: Inhibition of human NCI-H630 cell growth in a cell viability assay.
row,SMILES,IC50
1,CS(=O)(=O)N1CCN(Cc2cc3nc(-c4cccc5[nH]ncc45)nc(N4CCOCC4)c3s2)CC1 [PICTILISIB],> 4 µM

# Tested on: CAPAN-1;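 note: growth suppression of CAPAN-1 cells, read out by a cell viability assay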
# Test: cells
# Type: functional, cell-based
# Settings: Homo sapiens
# Description: SANGER: Inhibition of human CAPAN-1 cell growth in a cell viability assay.
row,SMILES,IC50
1,CS(=O)(=O)N1CCN(Cc2cc3nc(-c4cccc5[nH]ncc45)nc(N4CCOCC4)c3s2)CC1 [PICTILISIB],> 4 µM

# Tested on: RMG-I;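 note: growth inhibition of human RMG-I cells, read out with a cell viability assay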
# Test: cells
# Type: functional, cell-based
# Settings: Homo sapiens
# Description: SANGER: Inhibition of human RMG-I cell growth in a cell viability assay.
row,SMILES,IC50
1,CS(=O)(=O)N1CCN(Cc2cc3nc(-c4cccc5[nH]ncc45)nc(N4CCOCC4)c3s2)CC1 [PICTILISIB],> 4 µM

# Tested on: NCI-H1437;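 note: growth inhibition of human NCI-H1437 cells, read out by a cell viability assay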
# Test: cells
# Type: functional, cell-based
# Settings: Homo sapiens
# Description: SANGER: Inhibition of human NCI-H1437 cell growth in a cell viability assay.
row,SMILES,IC50
1,CS(=O)(=O)N1CCN(Cc2cc3nc(-c4cccc5[nH]ncc45)nc(N4CCOCC4)c3s2)CC1 [PICTILISIB],> 4 µM

# Tested on: HuCCT-1;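 note: growth inhibition of HuCCT-1 cells, read out by a cell viability assay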
# Test: cells
# Type: functional, cell-based, HuCCT1
# Settings: Homo sapiens
# Description: SANGER: Inhibition of human HuCCT1 cell growth in a cell viability assay.
row,SMILES,IC50
1,CS(=O)(=O)N1CCN(Cc2cc3nc(-c4cccc5[nH]ncc45)nc(N4CCOCC4)c3s2)CC1 [PICTILISIB],> 4 µM

# Tested on: SW1710;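 note: growth inhibition of SW1710 cells, determined with a cell viability assay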
# Test: cells
# Type: functional, cell-based
# Settings: Homo sapiens
# Description: SANGER: Inhibition of human SW1710 cell growth in a cell viability assay.
row,SMILES,IC50
1,CS(=O)(=O)N1CCN(Cc2cc3nc(-c4cccc5[nH]ncc45)nc(N4CCOCC4)c3s2)CC1 [PICTILISIB],1040 nM

# Tested on: MDA-MB-157
# Test: cells
# Type: functional, cell-based
# Settings: Homo sapiens
# Description: SANGER: Inhibition of human MDA-MB-157 cell growth in a cell viability assay.
row,SMILES,IC50
1,CS(=O)(=O)N1CCN(Cc2cc3nc(-c4cccc5[nH]ncc45)nc(N4CCOCC4)c3s2)CC1 [PICTILISIB],2820 nM

# Tested on: U-251;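 note: growth inhibition of human U-251 cells, read out through a cell viability assay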
# Test: cells
# Type: functional, cell-based
# Settings: Homo sapiens
# Description: SANGER: Inhibition of human U251 cell growth in a cell viability assay.
row,SMILES,IC50
1,CS(=O)(=O)N1CCN(Cc2cc3nc(-c4cccc5[nH]ncc45)nc(N4CCOCC4)c3s2)CC1 [PICTILISIB],> 4 µM

# Tested on: SNU-449
# Test: cells
# Type: functional, cell-based
# Settings: Homo sapiens
# Description: SANGER: Inhibition of human SNU-449 cell growth in a cell viability assay.
row,SMILES,IC50
1,CS(=O)(=O)N1CCN(Cc2cc3nc(-c4cccc5[nH]ncc45)nc(N4CCOCC4)c3s2)CC1 [PICTILISIB],2570 nM

# Tested on: CAL-39;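 note: cell viability assay measuring growth inhibition of CAL-39 cells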
# Test: cells
# Type: functional, cell-based
# Settings: Homo sapiens
# Description: SANGER: Inhibition of human CAL-39 cell growth in a cell viability assay.
row,SMILES,IC50
1,CS(=O)(=O)N1CCN(Cc2cc3nc(-c4cccc5[nH]ncc45)nc(N4CCOCC4)c3s2)CC1 [PICTILISIB],2030 nM

# Tested on: Calu-3;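 note: growth inhibition of human Calu-3 cells, determined with a cell viability assay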
# Test: cells
# Type: functional, cell-based
# Settings: Homo sapiens
# Description: SANGER: Inhibition of human Calu-3 cell growth in a cell viability assay.
row,SMILES,IC50
1,CS(=O)(=O)N1CCN(Cc2cc3nc(-c4cccc5[nH]ncc45)nc(N4CCOCC4)c3s2)CC1 [PICTILISIB],3.71 µM

# Tested on: A204;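 note: growth inhibition of human A204 cells, read out with a cell viability assay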
# Test: cells
# Type: functional, cell-based
# Settings: Homo sapiens
# Description: SANGER: Inhibition of human A204 cell growth in a cell viability assay.
row,SMILES,IC50
1,CS(=O)(=O)N1CCN(Cc2cc3nc(-c4cccc5[nH]ncc45)nc(N4CCOCC4)c3s2)CC1 [PICTILISIB],522 nM

# Tested on: SW1463;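 note: growth inhibition of SW1463 cells, determined with a cell viability assay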
# Test: cells
# Type: functional, cell-based
# Settings: Homo sapiens
# Description: SANGER: Inhibition of human SW1463 cell growth in a cell viability assay.
row,SMILES,IC50
1,CS(=O)(=O)N1CCN(Cc2cc3nc(-c4cccc5[nH]ncc45)nc(N4CCOCC4)c3s2)CC1 [PICTILISIB],> 4 µM

# Tested on: SW780;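 note: growth inhibition of the cells, read out with a cell viability assay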
# Test: cells
# Type: functional, cell-based
# Settings: Homo sapiens
# Description: SANGER: Inhibition of human SW780 cell growth in a cell viability assay.
row,SMILES,IC50
1,CS(=O)(=O)N1CCN(Cc2cc3nc(-c4cccc5[nH]ncc45)nc(N4CCOCC4)c3s2)CC1 [PICTILISIB],> 4 µM
